Test results reported in article PMC6054832, “Novel pharmacological maps of protein lysine methyltransferases: key for target deorphanization” (Journal of Cheminformatics, 2018).

Assays:
KMT5C [1] = target: T1, KMT5C (Homo sapiens, UniProt Q86Y97); assay: biochemical; parameters: Eurofins radiometric methyltransferase inhibition assay with [3H]SAM and nucleosome, core histone or histone H3 substrate
Text: (§1) Inhibitory activity assays for prospective validation

NSD1 [2] = target: T2, NSD1 (Homo sapiens, UniProt Q96L73); assay: biochemical; parameters: Eurofins radiometric methyltransferase inhibition assay with [3H]SAM and nucleosome, core histone or histone H3 substrate
Text: as §1

SETD2 [3] = target: T3, SETD2 (Homo sapiens, UniProt Q9BYW2); assay: biochemical; parameters: Eurofins radiometric methyltransferase inhibition assay with [3H]SAM and nucleosome, core histone or histone H3 substrate
Text: as §1

KMT2A = KMT2A (Homo sapiens, UniProt Q03164); assay: biochemical; parameters: Eurofins radiometric methyltransferase inhibition assay with [3H]SAM and nucleosome, core histone or histone H3 substrate
Text: as §1

NSD2 = target: T4, NSD2 (Homo sapiens, UniProt O96028); assay: biochemical; parameters: Eurofins radiometric methyltransferase inhibition assay with [3H]SAM and nucleosome, core histone or histone H3 substrate
T4 sequence (O96028 1-1365): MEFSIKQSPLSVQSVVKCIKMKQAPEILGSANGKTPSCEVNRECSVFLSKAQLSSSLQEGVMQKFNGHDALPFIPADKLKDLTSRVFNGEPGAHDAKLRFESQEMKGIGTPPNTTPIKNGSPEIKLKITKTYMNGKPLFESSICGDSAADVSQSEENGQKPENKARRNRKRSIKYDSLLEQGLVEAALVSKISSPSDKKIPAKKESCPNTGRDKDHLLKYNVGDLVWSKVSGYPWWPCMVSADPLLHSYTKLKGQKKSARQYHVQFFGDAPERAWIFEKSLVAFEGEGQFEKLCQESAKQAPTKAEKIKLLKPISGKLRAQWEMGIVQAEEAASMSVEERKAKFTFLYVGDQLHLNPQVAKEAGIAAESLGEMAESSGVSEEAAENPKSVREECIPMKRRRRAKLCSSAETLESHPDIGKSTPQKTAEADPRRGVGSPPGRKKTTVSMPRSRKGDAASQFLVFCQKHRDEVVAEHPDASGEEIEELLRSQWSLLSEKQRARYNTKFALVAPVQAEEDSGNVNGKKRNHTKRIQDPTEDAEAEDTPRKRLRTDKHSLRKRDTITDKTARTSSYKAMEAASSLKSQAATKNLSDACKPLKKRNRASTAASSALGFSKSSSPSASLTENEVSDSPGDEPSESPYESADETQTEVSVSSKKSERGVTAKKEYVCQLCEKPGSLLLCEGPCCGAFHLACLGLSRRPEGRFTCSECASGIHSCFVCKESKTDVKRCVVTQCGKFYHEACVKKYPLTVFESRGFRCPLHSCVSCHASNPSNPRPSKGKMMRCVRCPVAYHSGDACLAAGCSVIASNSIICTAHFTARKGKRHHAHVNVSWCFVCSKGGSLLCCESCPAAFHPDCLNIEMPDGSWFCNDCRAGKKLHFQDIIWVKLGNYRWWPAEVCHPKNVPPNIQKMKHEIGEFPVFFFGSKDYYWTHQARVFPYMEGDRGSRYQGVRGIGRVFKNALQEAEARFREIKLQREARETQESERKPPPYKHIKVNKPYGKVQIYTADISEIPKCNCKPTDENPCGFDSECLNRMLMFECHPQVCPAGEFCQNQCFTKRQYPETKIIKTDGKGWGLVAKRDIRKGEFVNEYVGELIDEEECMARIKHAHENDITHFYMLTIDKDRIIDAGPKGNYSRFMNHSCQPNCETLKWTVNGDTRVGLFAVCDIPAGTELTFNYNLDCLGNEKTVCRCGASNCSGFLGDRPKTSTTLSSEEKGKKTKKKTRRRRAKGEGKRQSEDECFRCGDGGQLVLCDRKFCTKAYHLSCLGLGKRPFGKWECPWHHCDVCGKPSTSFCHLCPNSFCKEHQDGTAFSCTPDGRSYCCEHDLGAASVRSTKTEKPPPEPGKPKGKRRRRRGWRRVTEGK
Text: as §1

SETD2 [4] = target: T3, SETD2; assay: radioactive [3H]SAM methyltransferase assay with nucleosome substrate (Eurofins), […]; type: biochemical
KMT5C [5] = target: T1, KMT5C; assay: as above; type: biochemical
NSD1 [6] = target: T2, NSD1; assay: as above; type: biochemical

T2 sequence (Q96L73 whole entry): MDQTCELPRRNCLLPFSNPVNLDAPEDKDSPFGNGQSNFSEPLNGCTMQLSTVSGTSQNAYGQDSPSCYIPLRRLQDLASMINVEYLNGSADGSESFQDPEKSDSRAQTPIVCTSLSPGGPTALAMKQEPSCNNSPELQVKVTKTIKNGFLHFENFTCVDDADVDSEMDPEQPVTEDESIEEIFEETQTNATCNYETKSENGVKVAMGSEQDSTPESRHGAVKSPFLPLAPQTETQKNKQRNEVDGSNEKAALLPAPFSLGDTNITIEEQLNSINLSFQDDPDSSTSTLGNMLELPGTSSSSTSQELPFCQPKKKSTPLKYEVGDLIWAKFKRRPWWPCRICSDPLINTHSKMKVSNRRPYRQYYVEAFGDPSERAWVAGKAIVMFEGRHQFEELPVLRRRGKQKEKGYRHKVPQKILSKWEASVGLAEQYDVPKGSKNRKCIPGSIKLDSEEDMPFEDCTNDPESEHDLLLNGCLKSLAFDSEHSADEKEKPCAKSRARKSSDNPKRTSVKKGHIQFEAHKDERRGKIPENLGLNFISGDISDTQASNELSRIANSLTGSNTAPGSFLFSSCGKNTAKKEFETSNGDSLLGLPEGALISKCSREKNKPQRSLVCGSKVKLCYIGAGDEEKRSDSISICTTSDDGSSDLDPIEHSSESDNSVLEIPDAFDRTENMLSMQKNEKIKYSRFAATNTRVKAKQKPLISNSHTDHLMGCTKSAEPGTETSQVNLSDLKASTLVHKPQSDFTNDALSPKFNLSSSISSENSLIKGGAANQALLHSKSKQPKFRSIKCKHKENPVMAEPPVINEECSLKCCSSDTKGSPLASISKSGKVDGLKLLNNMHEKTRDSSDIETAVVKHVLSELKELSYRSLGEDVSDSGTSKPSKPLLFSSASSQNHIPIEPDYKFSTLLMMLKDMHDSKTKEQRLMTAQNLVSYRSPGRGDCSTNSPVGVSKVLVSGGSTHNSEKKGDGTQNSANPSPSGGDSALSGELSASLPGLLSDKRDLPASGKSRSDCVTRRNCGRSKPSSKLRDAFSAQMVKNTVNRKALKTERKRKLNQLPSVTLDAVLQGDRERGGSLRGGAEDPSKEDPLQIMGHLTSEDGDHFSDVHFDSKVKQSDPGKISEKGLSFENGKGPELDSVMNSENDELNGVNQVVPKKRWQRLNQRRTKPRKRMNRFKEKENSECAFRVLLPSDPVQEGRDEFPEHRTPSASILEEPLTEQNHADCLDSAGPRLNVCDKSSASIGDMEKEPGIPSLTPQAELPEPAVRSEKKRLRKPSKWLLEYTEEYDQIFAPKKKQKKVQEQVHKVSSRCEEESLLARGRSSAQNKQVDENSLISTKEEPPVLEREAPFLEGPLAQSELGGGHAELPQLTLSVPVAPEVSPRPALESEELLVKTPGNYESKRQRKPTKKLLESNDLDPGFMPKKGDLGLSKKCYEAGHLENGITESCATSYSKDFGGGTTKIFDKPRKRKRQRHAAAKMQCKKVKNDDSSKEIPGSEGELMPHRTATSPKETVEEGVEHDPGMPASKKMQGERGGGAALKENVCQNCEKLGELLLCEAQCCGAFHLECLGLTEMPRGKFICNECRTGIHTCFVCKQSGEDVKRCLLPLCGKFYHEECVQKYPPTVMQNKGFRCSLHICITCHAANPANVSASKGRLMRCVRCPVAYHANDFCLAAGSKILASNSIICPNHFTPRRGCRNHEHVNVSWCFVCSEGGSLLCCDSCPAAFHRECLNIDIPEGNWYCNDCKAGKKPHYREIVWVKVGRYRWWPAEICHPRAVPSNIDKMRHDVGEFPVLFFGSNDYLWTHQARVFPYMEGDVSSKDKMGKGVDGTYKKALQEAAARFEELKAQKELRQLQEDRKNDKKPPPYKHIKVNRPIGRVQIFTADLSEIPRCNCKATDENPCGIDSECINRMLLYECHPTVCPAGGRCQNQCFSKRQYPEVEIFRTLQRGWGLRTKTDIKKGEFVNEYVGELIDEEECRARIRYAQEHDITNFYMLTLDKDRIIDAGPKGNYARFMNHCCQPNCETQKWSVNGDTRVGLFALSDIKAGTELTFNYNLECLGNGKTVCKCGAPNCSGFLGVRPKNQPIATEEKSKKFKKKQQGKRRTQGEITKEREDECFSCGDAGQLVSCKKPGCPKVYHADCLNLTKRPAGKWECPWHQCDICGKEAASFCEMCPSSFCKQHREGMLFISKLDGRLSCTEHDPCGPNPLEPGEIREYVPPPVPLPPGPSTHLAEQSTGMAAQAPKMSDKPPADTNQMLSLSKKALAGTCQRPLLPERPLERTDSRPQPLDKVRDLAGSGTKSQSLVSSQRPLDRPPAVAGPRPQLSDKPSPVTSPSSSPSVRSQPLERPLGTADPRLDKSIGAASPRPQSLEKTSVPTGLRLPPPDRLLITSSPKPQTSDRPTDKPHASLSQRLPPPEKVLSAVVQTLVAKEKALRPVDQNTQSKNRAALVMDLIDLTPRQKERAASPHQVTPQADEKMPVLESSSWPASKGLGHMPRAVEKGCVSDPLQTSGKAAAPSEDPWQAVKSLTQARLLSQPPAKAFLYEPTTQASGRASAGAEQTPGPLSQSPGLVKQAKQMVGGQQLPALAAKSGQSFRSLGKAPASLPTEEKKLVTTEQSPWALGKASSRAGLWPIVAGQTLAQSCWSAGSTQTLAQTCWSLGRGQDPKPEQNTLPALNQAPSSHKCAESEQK
T1 sequence (Q86Y97 whole entry): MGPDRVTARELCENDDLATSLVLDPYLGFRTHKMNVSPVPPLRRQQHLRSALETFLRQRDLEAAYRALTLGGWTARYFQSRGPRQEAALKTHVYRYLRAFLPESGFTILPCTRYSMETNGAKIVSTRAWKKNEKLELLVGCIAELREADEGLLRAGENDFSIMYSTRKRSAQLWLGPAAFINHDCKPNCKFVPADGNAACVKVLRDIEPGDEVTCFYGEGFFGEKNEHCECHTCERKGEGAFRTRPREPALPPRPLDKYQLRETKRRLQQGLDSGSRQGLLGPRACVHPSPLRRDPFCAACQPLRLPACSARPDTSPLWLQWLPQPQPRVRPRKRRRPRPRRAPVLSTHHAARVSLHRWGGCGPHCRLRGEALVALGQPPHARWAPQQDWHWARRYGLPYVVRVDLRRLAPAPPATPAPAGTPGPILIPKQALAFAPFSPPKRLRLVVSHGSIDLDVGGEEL

Row | Compound | inhibition at 10 µM (KMT5C [1]) [%] | inhibition at 100 µM (KMT5C [1]) [%] | inhibition at 10 µM (NSD1 [2]) [%] | inhibition at 100 µM (NSD1 [2]) [%] | inhibition at 10 µM (SETD2 [3]) [%] | inhibition at 10 µM (KMT2A) [%] | inhibition at 100 µM (KMT2A) [%] | inhibition at 10 µM (NSD2) [%] | inhibition at 100 µM (NSD2) [%] | inhibition at 100 µM (SETD2 [4]) [%] | radioactive [3H]SAM methyltransferase assay with nucleosome substrate (Eurofins) (KMT5C [5]) | inhibition at 10 µM (NSD1 [6]) [%] | inhibition at 100 µM (SETD2 [3]) [%]
1 | COc1cc2c(NC3CC4(CCN(C)CC4)C3)cc(-c3ccc(C)o3)nc2cc1OCCCN1CCCC1 [CM-679] | 85.7 | 92.9 | 81.7 | 98 | -52.4 | 8.6 | 48.8 | 11.9 | 0.3 | 84 | low micromolar range | > 50 | –
2 | COc1cc2c(NC3CCN(C)CC3)cc(-c3ccc(C)o3)nc2cc1OC1CC2(C1)CN(C)C2 [CM-986] | 79.1 | 87.7 | 55.9 | 98.8 | -69.8 | 2.9 | 30.5 | -7.2 | 2.7 | – | low micromolar range | > 50 | 42.1
3 | COc1cc2c(NC3CCN(C)CC3)cc(-c3ccc(C)o3)nc2cc1OCCCN1CCCC1 [CM-272] | 92 | 91.8 | 63.5 | 97.8 | – | -1 | 7.4 | -0.5 | 11.7 | – | low micromolar range | > 50 | 45.9
